We go through 36 compounds from patent publication US20210139484A1, “DIHYDROISOQUINOLINE-2(1H)-CARBOXAMIDE AND RELATED COMPOUNDS AND THEIR USE IN TREATING MEDICAL CONDITIONS” (GOSSAMER BIO SERVICES, INC., priority 2018, published 2021).

In general, IC50 refers to the midpoint of a concentration-inhibition curve. Read a low IC50 as greater potency.

A value given as a limit tells only on which side of the number the result lay.

One test has as its target T1, human HPK1 protein (Homo sapiens, UniProt Q92918).
T1 construct: recombinant human HPK1 protein (a.a. 1-346) was expressed in Sf9 insect cells; GST (N); purchased Signalchem M23-11G; host or cells: Sf9 insect cells (baculovirus)
T1 sequence (Q92918 1-346): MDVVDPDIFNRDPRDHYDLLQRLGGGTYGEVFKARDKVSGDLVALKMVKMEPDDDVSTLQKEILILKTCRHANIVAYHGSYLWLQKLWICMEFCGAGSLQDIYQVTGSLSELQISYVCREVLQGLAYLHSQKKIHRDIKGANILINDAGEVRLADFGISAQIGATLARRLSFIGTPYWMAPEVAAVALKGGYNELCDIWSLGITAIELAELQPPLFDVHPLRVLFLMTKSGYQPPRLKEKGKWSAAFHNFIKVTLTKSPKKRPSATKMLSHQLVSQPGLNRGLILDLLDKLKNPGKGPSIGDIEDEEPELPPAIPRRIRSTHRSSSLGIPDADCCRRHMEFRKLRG
Nature of the test: Human HPK1 protein TR-FRET assay. Format: biochemical. Particulars: 1 mM ATP, Table 19. In a few lines: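 Read-out was TR-FRET using Eu-labeled anti-phospho-CREB (Ser133) antibody, with the 665/615 nm signal ratio normalised to DMSO-only wells and fitted by a 4-parameter logistic model for IC50. Reactions held 10 nM Sf9-expressed GST-HPK1 (a.a. 1-346), 100 nM CREBtide and 1 mM ATP, run 60 minutes at room temperature, pH 7.5.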
(TR-FRET usually uses a lanthanide donor and a delayed reading to cut background.)
`CCN1CCN(Cc2ccc(NC(=O)N3CCc4ccc(Oc5ccnn6cc(Br)cc56)cc4C3)cc2C(F)(F)F)CC1` [II-24] showed an IC50 of less than 500 nM.
On the same count and under the same terms, the value for `CCN1CCN(Cc2ccc(NC(=O)N3CCc4cc(F)c(Oc5ccnc6[nH]c(C)cc56)cc4C3C)cc2C(F)(F)F)CC1` (single isomer, unassigned) [IV-25] was less than 500 nM; that for `CCN1CCN(Cc2ccc(NC(=O)N3CCc4ccc(Oc5ccnc6[nH]c(C)cc56)cc4C3)cc2C(F)(F)F)CC1` [III-4] was less than 500 nM; that for `CCN1CCN(Cc2ccc(NC(=O)N3Cc4cc(Oc5ccnc6[nH]ccc56)c(F)cc4C(C)C3)cc2C(F)(F)F)CC1` (stereo not drawn) [compound 4, 7-((1H-pyrrolo[2,3-b]pyridin-4-yl)oxy)-N-(4-((4-ethylpiperazin-1-yl)methyl)-3-(trifluoromethyl)phenyl)-6-fluoro-4-methyl-3,4-dihydroisoquinoline-2(1H)-carboxamide] was less than 500 nM.
As to `CCN1CCN(Cc2ccc(NC(=O)N3Cc4cc(Oc5ccnc6[nH]ccc56)ccc4C(C)C3)cc2C(F)(F)F)CC1` (single isomer, unassigned) [IV-2], the IC50 is less than 500 nM.
The compound `CCN1CCN(Cc2ccc(NC(=O)N3CCc4ccc(Oc5ccnc6[nH]ccc56)cc4[C@@H]3C)cc2Cl)CC1` [V-3] yielded an IC50 of less than 500 nM.
Same read-out and setting: the value for `CCN1CCN(Cc2ccc(NC(=O)N3CCc4ccc(Oc5ncnn6cc(-c7cnn(C)c7)cc56)cc4C3)cc2C(F)(F)F)CC1` [II-2] was less than 500 nM; that for `CCN1CCN(Cc2ccc(NC(=O)N3CCc4ccc(Oc5ccnc6[nH]ccc56)cc4C3)cc2C(F)(F)F)CC1` [compound 2, 7-((1H-Pyrrolo[2,3-b]pyridin-4-yl)oxy)-N-(4-((4-ethylpiperazin-1-yl)methyl)-3-(trifluoromethyl)phenyl)-3,4-dihydroisoquinoline-2(1H)-carboxamide] was less than 500 nM; that for `CCN1CCN(Cc2ccc(NC(=O)N3CCc4ccc(Oc5ccnc(C(N)=O)c5)cc4[C@@H]3C)cc2C(F)(F)F)CC1` [V-12] was 500 to 5000 nM.
On the same count and under the same terms, the same measure for `Cc1cc2c(Oc3ccc4c(c3)[C@H](C)N(C(=O)Nc3cnc(OC5CCCN(C)C5)c(C(F)(F)F)c3)CC4)ccnc2[nH]1` (mixture of isomers) [VI-6]: 500 to 5000 nM; for `Cc1cc2c(Oc3ccc4c(c3)[C@H](C)N(C(=O)Nc3cnc(OC5CCN(C)CC5O)c(C(F)(F)F)c3)CC4)ccnc2[nH]1` (stereo in doubt) [VI-8]: less than 500 nM; for `CCN1CCN(Cc2ccc(NC(=O)N3Cc4cc(Oc5ccnc6[nH]c(C)cc56)ccc4C(O)C3)cc2C(F)(F)F)CC1` (stereo not drawn) [compound 18, N-(4-((4-ethylpiperazin-1-yl)methyl)-3-(trifluoromethyl)phenyl)-4-hydroxy-7-((2-methyl-1H-pyrrolo[2,3-b]pyridin-4-yl)oxy)-3,4-dihydroisoquinoline-2(1H)-carboxamide]: less than 500 nM.
The same measure, in the same setting: the value for `CC1CN(C(=O)Nc2cnc(OC3CCN(C)CC3)c(C(F)(F)F)c2)Cc2cc(Oc3ccnc4[nH]ncc34)cnc21` (stereo not drawn) [VII-9] was 500 to 5000 nM; that for `Cc1cc2c(Oc3cnc4c(c3)CN(C(=O)Nc3cnc(OC5CCN(C)CC5)c(C(F)(F)F)c3)CC4C)ccnc2[nH]1` (stereo not drawn) [VII-6] was less than 500 nM.
`CN1CCC(Oc2ccc(NC(=O)N3CCc4ccc(Oc5ncnn6cccc56)cc4C3)cc2C(F)(F)F)CC1` [II-16]: the IC50 is 500 to 5000 nM.
With `CCN1CCN(Cc2ccc(NC(=O)C3CCc4ccc(Oc5ncnn6cccc56)cc4C3)cc2C(F)(F)F)CC1` (stereo not drawn) [compound 13, N-(4-((4-ethylpiperazin-1-yl)methyl)-3-(trifluoromethyl)phenyl)-7-(pyrrolo[2,1-f][1,2,4]triazin-4-yloxy)-1,2,3,4-tetrahydronaphthalene-2-carboxamide], the IC50 was less than 500 nM.

Still in this test, the particulars now being: 1 mM ATP, Table 20.
The compound `C[C@H]1CN(C(=O)Nc2ccc(CN3CCN(C)CC3)c(C(F)(F)F)c2)Cc2cc(Oc3ccnc4[nH]c(CO)cc34)cnc21` [XIV-78] showed an IC50 of less than 500 nM.
Same read-out and setting: the value for `CN1CCN(Cc2ccc(NC(=O)N3CCc4ccc(Oc5ccnc6[nH]c(C7(O)CC7)cc56)cc4C3)cc2C(F)(F)F)CC1` [XVIII-10] was less than 500 nM.
The compound `C[C@H]1c2cc(Oc3ccnc4[nH]c(CO)cc34)ccc2CCN1C(=O)Nc1ccc(CN2CCN(CCO)CC2)c(C(F)F)c1` [XIII-12] gave an IC50 of less than 500 nM.
The same measure, in the same setting: the value for `CC[C@H]1CN(C(=O)Nc2ccc(CN3CCNCC3)c(C(F)(F)F)c2)Cc2cc(Oc3ccnc4[nH]c(-c5n[nH]c(=O)o5)cc34)cnc21` [XIV-130] was less than 500 nM; that for `CCN1CCN(Cc2ccc(NC(=O)N3Cc4cc(Oc5ccnc6[nH]c(=O)[nH]c56)cnc4C(C)C3)cc2C(F)(F)F)CC1` (single isomer, unassigned) [XIV-12] was less than 500 nM; that for `CCN1CCN(Cc2ccc(NC(=O)N3CCc4ccc(Oc5cc(NC(=O)c6ccnnc6)ncc5F)cc4[C@@H]3C)cc2C(F)(F)F)CC1` [XIII-14] was less than 500 nM.
The same measure, in the same setting: the same measure for `CC[C@H]1CN(C(=O)Nc2ccc(CN3CCN(C)CC3)c(C(F)F)c2)Cc2cc(Oc3ccnc4[nH]c(C5CC5)cc34)cnc21` [XIV-59]: less than 500 nM; for `CC[C@H]1CN(C(=O)Nc2ccc(CN3CCN(C)CC3)c(C(F)(F)F)c2)Cc2cc(Oc3ccnc4[nH]c(-c5noc(C)n5)cc34)cnc21` [XIV-133]: less than 500 nM.
The same measure, in the same setting: the same measure for `CC[C@H]1CN(C(=O)Nc2ccc(CN3CCN(C)CC3)c(C(F)(F)F)c2)Cc2cc(Oc3c(F)cnc4[nH]c(C(=O)N(C)C)cc34)cnc21` [XIV-143]: less than 500 nM; for `CC[C@@H]1CN(C(=O)Nc2cnc(O[C@H]3CCN(C)C3)c(C(F)(F)F)c2)Cc2cc(Oc3ccnc4[nH]c(C)cc34)cnc21` [XIV-67]: more than 10000 nM; for `C[C@H]1CN(C(=O)Nc2ccc(CN3CCN(CCO)CC3)c(C(F)(F)F)c2)Cc2cc(Oc3ccnc4[nH]c(C#N)cc34)ccc21` [XV-36]: less than 500 nM.
`C=C(C)c1cc2c(Oc3cnc4c(c3)CN(C(=O)Nc3ccc(CN5CCN(C)CC5)c(C(F)(F)F)c3)C[C@@H]4CC)ccnc2[nH]1` [XIV-152] came in with an IC50 of less than 500 nM.
The same measure, in the same setting: the value for `CC[C@@H]1CN(C(=O)Nc2ccc(CN3CCN(C)CC3)c(C(F)F)c2)Cc2cc(Oc3ccnc4[nH]c(C#N)cc34)ccc21` [XV-18] was less than 500 nM.
Still for that read-out and setting: the same measure for `CC[C@H]1CN(C(=O)Nc2ccc(CN3CCN(C)CC3)c(C(F)(F)F)c2)Cc2cc(Oc3ccnc4[nH]c(C(=O)N5CC[C@H](O)C5)cc34)cnc21` [XIV-109]: less than 500 nM; for `CC[C@H]1CN(C(=O)Nc2ccc(CN3CCN(CCO)CC3)c(C(F)(F)F)c2)Cc2cc(Oc3ccnc4[nH]c(C5CC5)cc34)cnc21` [XIV-60]: less than 500 nM.
Consider `C[C@@H]1Cc2ccc(Oc3ccnc4[nH]c(C(=O)N(C)C)cc34)cc2CN1C(=O)Nc1cnc(CN2CCN(C)CC2)c(C(F)(F)F)c1` [XVI-10], for which the IC50 is less than 500 nM.
On the same count and under the same terms, the value for `O=C(Nc1ccc(CN2CCNCC2)c(C(F)(F)F)c1)N1CCc2ccc(Oc3c(F)cnc4[nH]c(C5(O)CC5)cc34)cc2C1` [XVIII-5] was less than 500 nM; that for `CN(C)C(=O)c1cc2c(Oc3ccc4c(c3)CN(C(=O)Nc3ccc(CN5CCNCC5)c(C(F)(F)F)c3)CC4)c(F)cnc2[nH]1` [XVIII-3] was less than 500 nM.
Regarding `CN1CCN(Cc2ncc(NC(=O)N3CCc4ccc(Oc5c(F)cnc6[nH]c(-c7cnn(C)c7)cc56)cc4C3)cc2C(F)(F)F)CC1` [XII-1], the half-maximal inhibitory concentration (IC50) was less than 500 nM.
Same read-out and setting: the same measure for `CC[C@H]1CN(C(=O)Nc2ccc(CN3CCNCC3)c(C(F)(F)F)c2)Cc2cc(Oc3ccnn4cc(C(=O)NC)cc34)cnc21` [XIV-125]: less than 500 nM.
